{
  "source": "patent US20250214962A1",
  "about": "“PYRIDINONE DERIVATIVES AS SELECTIVE CYTOTOXIC AGENTS AGAINST HIV INFECTED CELLS” (Merck Sharp & Dohme LLC, priority 2019, published 2025)",
  "key": {"[1]": {"tested_on": "infected PBMCs (VSV-G pseudotyped HIV virus)", "assay": "cells", "assay_type": "cell-based, human", "conditions": "Homo sapiens, PBMC, read-out: SMACK EC50_50% NHS"}, "Viking EC50, 50% NHS": {"assay": "Viking EC50, 50% NHS", "assay_type": "cell-based", "conditions": "method not described, read-out: Viking EC50_50% NHS"}},
  "data": [
    {"compound": "Cc1ccc(Cn2cnc(C(C)(F)F)c(Oc3cc(Cl)cc(C#N)c3F)c2=O)c(=O)[nH]1", "note": "[Example 3, 5-chloro-3-((4-(1,1-difluoroethyl)-1-((6-methyl-2-oxo-1,2-dihydropyridin-3-yl)methyl)-6-oxo-1,6-dihydropyrimidin-5-yl)oxy)-2-fluorobenzonitrile]", "values": [
      {"measurement": "EC50", "setting": "[1]", "result": 87.6, "unit": "nM"},
      {"measurement": "EC50", "setting": "Viking EC50, 50% NHS", "result": 14.1, "unit": "nM"}
    ]},
    {"compound": "Cc1c(C#N)cc(C(F)F)cc1Oc1c(C(F)(F)C(F)(F)F)ncn(Cc2cc(F)c[nH]c2=O)c1=O", "note": "[Example 38, 5-(difluoromethyl)-3-((1-((5-fluoro-2-oxo-1,2-dihydropyridin-3-yl)methyl)-6-oxo-4-(perfluoroethyl)-1,6-dihydropyrimidin-5-yl)oxy)-2-methylbenzonitrile]", "values": [
      {"measurement": "EC50", "setting": "[1]", "result": 191, "unit": "nM"},
      {"measurement": "EC50", "setting": "Viking EC50, 50% NHS", "result": 96.8, "unit": "nM"}
    ]},
    {"compound": "COCc1ccc(Cn2cnc(C(F)(F)C(F)F)c(Oc3cc(C(F)F)cc(C#N)c3C)c2=O)c(=O)[nH]1", "note": "[Example 26, 5-(difluoromethyl)-3-((1-((6-(methoxymethyl)-2-oxo-1,2-dihydropyridin-3-yl)methyl)-6-oxo-4-(1,1,2,2-tetrafluoroethyl)-1,6-dihydropyrimidin-5-yl)oxy)-2-methylbenzonitrile]", "values": [
      {"measurement": "EC50", "setting": "[1]", "result": 90.1, "unit": "nM"},
      {"measurement": "EC50", "setting": "Viking EC50, 50% NHS", "result": 29.3, "unit": "nM"}
    ]},
    {"compound": "N#Cc1cc(Cl)cc(Oc2c(C(F)(F)F)ncn(Cc3cc(F)c[nH]c3=O)c2=O)c1F", "note": "[Example 37, 5-chloro-2-fluoro-3-((1-((5-fluoro-2-oxo-1,2-dihydropyridin-3-yl)methyl)-6-oxo-4-(trifluoromethyl)-1,6-dihydropyrimidin-5-yl)oxy)benzonitrile]", "values": [
      {"measurement": "EC50", "setting": "[1]", "result": 413, "unit": "nM"},
      {"measurement": "EC50", "setting": "Viking EC50, 50% NHS", "result": 32.4, "unit": "nM"}
    ]},
    {"compound": "Cc1c(C#N)cc(Cl)cc1Oc1c(C(F)(F)F)ncn(Cc2cc(F)c[nH]c2=O)c1=O", "note": "[Example 19, 5-chloro-3-((1-((5-fluoro-2-oxo-1,2-dihydropyridin-3-yl)methyl)-6-oxo-4-(trifluoromethyl)-1,6-dihydropyrimidin-5-yl)oxy)-2-methylbenzonitrile]", "values": [
      {"measurement": "EC50", "setting": "[1]", "result": 376, "unit": "nM"},
      {"measurement": "EC50", "setting": "Viking EC50, 50% NHS", "result": 30.7, "unit": "nM"}
    ]},
    {"compound": "N#Cc1cc(Cl)cc(Oc2c(C(F)(F)C(F)F)ncn(Cc3ccc[nH]c3=O)c2=O)c1Cl", "note": "[Example 8, 2,5-dichloro-3-((6-oxo-1-((2-oxo-1,2-dihydropyridin-3-yl)methyl)-4-(1,1,2,2-tetrafluoroethyl)-1,6-dihydropyrimidin-5-yl)oxy)benzonitrile]", "values": [
      {"measurement": "EC50", "setting": "[1]", "result": 495, "unit": "nM"},
      {"measurement": "EC50", "setting": "Viking EC50, 50% NHS", "result": 26.9, "unit": "nM"}
    ]},
    {"compound": "Cc1c(C#N)cc(C(F)F)cc1Oc1c(C(F)(F)C(F)F)ncn(Cc2ccc[nH]c2=O)c1=O", "note": "[Example 17, 5-(difluoromethyl)-2-methyl-3-((6-oxo-1-((2-oxo-1,2-dihydropyridin-3-yl)methyl)-4-(1,1,2,2-tetrafluoroethyl)-1,6-dihydropyrimidin-5-yl)oxy)benzonitrile]", "values": [
      {"measurement": "EC50", "setting": "[1]", "result": 218, "unit": "nM"},
      {"measurement": "EC50", "setting": "Viking EC50, 50% NHS", "result": 17.1, "unit": "nM"}
    ]},
    {"compound": "Cc1cc(C)c(Cn2cnc(C(F)(F)C(F)F)c(Oc3cc(Br)cc(C#N)c3)c2=O)c(=O)[nH]1", "note": "[Example 7, 3-bromo-5-((1-((4,6-dimethyl-2-oxo-1,2-dihydropyridin-3-yl)methyl)-6-oxo-4-(1,1,2,2-tetrafluoroethyl)-1,6-dihydropyrimidin-5-yl)oxy)benzonitrile]", "values": [
      {"measurement": "EC50", "setting": "[1]", "result": 433, "unit": "nM"},
      {"measurement": "EC50", "setting": "Viking EC50, 50% NHS", "result": 29.1, "unit": "nM"}
    ]},
    {"compound": "Cc1ccc(Cn2cnc(C(F)(F)F)c(Oc3cc(Cl)cc(C#N)c3F)c2=O)c(=O)[nH]1", "note": "[Example 4, 5-chloro-2-fluoro-3-((1-((6-methyl-2-oxo-1,2-dihydropyridin-3-yl)methyl)-6-oxo-4-(trifluoromethyl)-1,6-dihydropyrimidin-5-yl)oxy)benzonitrile]", "values": [
      {"measurement": "EC50", "setting": "[1]", "result": 197, "unit": "nM"},
      {"measurement": "EC50", "setting": "Viking EC50, 50% NHS", "result": 41.1, "unit": "nM"}
    ]},
    {"compound": "Cc1ccc(Cn2cnc(C(F)(F)C(F)F)c(Oc3cc(C(F)F)cc(C#N)c3C)c2=O)c(=O)[nH]1", "note": "[Example 22, 5-(difluoromethyl)-2-methyl-3-((1-((6-methyl-2-oxo-1,2-dihydropyridin-3-yl)methyl)-6-oxo-4-(1,1,2,2-tetrafluoroethyl)-1,6-dihydropyrimidin-5-yl)oxy)benzonitrile]", "values": [
      {"measurement": "EC50", "setting": "[1]", "result": 131, "unit": "nM"},
      {"measurement": "EC50", "setting": "Viking EC50, 50% NHS", "result": 48.9, "unit": "nM"}
    ]},
    {"compound": "N#Cc1cc(Oc2c(C(F)(F)F)ncn(Cc3cc(F)c[nH]c3=O)c2=O)cc(C(F)F)c1", "note": "[Example 35]", "values": [
      {"measurement": "EC50", "setting": "[1]", "result": 314, "unit": "nM"},
      {"measurement": "EC50", "setting": "Viking EC50, 50% NHS", "result": 15.6, "unit": "nM"}
    ]},
    {"compound": "Cc1cc(C#N)cc(Oc2c(C(C)(F)F)ncn(Cc3c(C)cc(C)[nH]c3=O)c2=O)c1", "note": "[Example 15, 3-((4-(1,1-difluoroethyl)-1-((4,6-dimethyl-2-oxo-1,2-dihydropyridin-3-yl)methyl)-6-oxo-1,6-dihydropyrimidin-5-yl)oxy)-5-methylbenzonitrile]", "values": [
      {"measurement": "EC50", "setting": "[1]", "result": 384, "unit": "nM"},
      {"measurement": "EC50", "setting": "Viking EC50, 50% NHS", "result": 21.9, "unit": "nM"}
    ]},
    {"compound": "Cc1c(C#N)cc(C(F)F)cc1Oc1c(C(F)(F)C(F)(F)F)ncn(Cc2ccc[nH]c2=O)c1=O", "note": "[Example 23, 5-(Difluoromethyl)-2-Methyl-3-((6-Oxo-1-((2-Oxo-1,2-Dihydropyridin-3-Yl)Methyl)-4-(Perfluoroethyl)-1,6-Dihydropyrimidin-5-Yl)Oxy)Benzonitrile]", "values": [
      {"measurement": "EC50", "setting": "[1]", "result": 234, "unit": "nM"},
      {"measurement": "EC50", "setting": "Viking EC50, 50% NHS", "result": 53, "unit": "nM"}
    ]},
    {"compound": "Cc1c(C#N)cc(C(F)F)cc1Oc1c(C(F)(F)C(F)F)ncn(Cc2cc(F)c[nH]c2=O)c1=O", "note": "[Example 14, 5-(Difluoromethyl)-3-((1-((5-Fluoro-2-Oxo-1,2-Dihydropyridin-3-Yl)Methyl)-6-Oxo-4-(1,1,2,2-Tetrafluoroethyl)-1,6-Dihydropyrimidin-5-Yl)Oxy)-2-Methylbenzonitrile]", "values": [
      {"measurement": "EC50", "setting": "[1]", "result": 101, "unit": "nM"},
      {"measurement": "EC50", "setting": "Viking EC50, 50% NHS", "result": 29.5, "unit": "nM"}
    ]},
    {"compound": "Cc1c(C#N)cc(C(F)F)cc1Oc1c(C(F)(F)C(F)F)ncn(Cc2ccc(C(C)(C)O)[nH]c2=O)c1=O", "note": "[Example 29, 5-(Difluoromethyl)-3-((1-((6-(2-Hydroxypropan-2-Yl)-2-Oxo-1,2-Dihydropyridin-3-Yl)Methyl)-6-Oxo-4-(1,1,2,2-Tetrafluoroethyl)-1,6-Dihydropyrimidin-5-Yl)Oxy)-2-Methylbenzonitrile]", "values": [
      {"measurement": "EC50", "setting": "[1]", "result": 187, "unit": "nM"},
      {"measurement": "EC50", "setting": "Viking EC50, 50% NHS", "result": 29.8, "unit": "nM"}
    ]},
    {"compound": "Cc1cc(C)c(Cn2cnc(C(F)(F)C(F)F)c(Oc3cc(C#N)cc(C(F)F)c3)c2=O)c(=O)[nH]1", "note": "[Example 40, 3-(difluoromethyl)-5-((1-((4,6-dimethyl-2-oxo-1,2-dihydropyridin-3-yl)methyl)-6-oxo-4-(1,1,2,2-tetrafluoroethyl)-1,6-dihydropyrimidin-5-yl)oxy)benzonitrile]", "values": [
      {"measurement": "EC50", "setting": "[1]", "result": 283, "unit": "nM"},
      {"measurement": "EC50", "setting": "Viking EC50, 50% NHS", "result": 39.2, "unit": "nM"}
    ]},
    {"compound": "N#Cc1cc(Cl)cc(Oc2c(C(F)(F)F)ncn(Cc3cc(F)c[nH]c3=O)c2=O)c1Cl", "note": "[Example 36, 2,5-dichloro-3-((1-((5-fluoro-2-oxo-1,2-dihydropyridin-3-yl)methyl)-6-oxo-4-(trifluoromethyl)-1,6-dihydropyrimidin-5-yl)oxy)benzonitrile]", "values": [
      {"measurement": "EC50", "setting": "[1]", "result": 369, "unit": "nM"},
      {"measurement": "EC50", "setting": "Viking EC50, 50% NHS", "result": 50, "unit": "nM"}
    ]},
    {"compound": "CC(O)c1ccc(Cn2cnc(C(F)(F)C(F)F)c(Oc3cc(Cl)cc(C#N)c3F)c2=O)c(=O)[nH]1", "note": "(single isomer, unassigned) [Example 34]", "values": [
      {"measurement": "EC50", "setting": "[1]", "result": 270, "unit": "nM"},
      {"measurement": "EC50", "setting": "Viking EC50, 50% NHS", "result": 43.1, "unit": "nM"}
    ]},
    {"compound": "N#Cc1cc(Cl)cc(Oc2c(C(F)(F)C(F)F)ncn(Cc3ccc(CO)[nH]c3=O)c2=O)c1F", "note": "[Example 31, 5-Chloro-2-Fluoro-3-((1-((6-(Hydroxymethyl)-2-Oxo-1,2-Dihydropyridin-3-Yl)Methyl)-6-Oxo-4-(1,1,2,2-Tetrafluoroethyl)-1,6-Dihydropyrimidin-5-Yl)Oxy)Benzonitrile]", "values": [
      {"measurement": "EC50", "setting": "[1]", "result": 86.8, "unit": "nM"},
      {"measurement": "EC50", "setting": "Viking EC50, 50% NHS", "result": 20.7, "unit": "nM"}
    ]}
  ]
}
